{"source": "patent US12171801B2", "about": "“Compositions and related methods for controlling vector-borne diseases” (priority 2017, dated 2024)", "key": {"Sitophilus zeamais [1]": {"test_system": "Sitophilus zeamais", "assay": "Development of F1 weevils in dissected corn kernels", "type": "in vivo", "details": "250 ug/ml and 2.5 mg/ml"}, "Sitophilus zeamais [2]": {"test_system": "Sitophilus zeamais", "assay": "Emergence of F1 weevils (fecundity)", "details": "2.5 mg/ml, till day 43"}, "Escherichia coli DH5a": {"test_system": "Escherichia coli DH5a", "assay": "Antibiotic coating and penetration of corn kernels (E. coli growth on LB plates)", "type": "cell-based", "details": "kernels soaked in 2.5 or 0.25 mg/ml"}, "Sitophilus zeamais [3]": {"test_system": "Sitophilus zeamais", "assay": "Weevil survival", "type": "in vivo", "details": "250 μg/ml or 2.5 mg/ml, 18 days", "excerpt": "(§1) Weevil survival was monitored daily for 18 days, after which DNA was extracted from the remaining weevils in each group. Briefly, the weevil body was surface sterilized by dipping the weevil into a 6% bleach solution for approximately 5 seconds. Weevils were then rinsed in sterile water and DNA was extracted from each individual aphid using a DNA extraction kit (Qiagen, DNeasy kit) according to manufacturer's instructions. […]; SEQ ID NO: 243). […]; SEQ ID NO: 245) (Login et al., 2011). qPCR was performed using a qPCR amplification ramp of 1.6 degrees C./s and the following conditions: 1) 95° C. for 10 minutes, 2) 95° C. for 15 seconds, 3) 57° C. for 30 seconds, 4) repeat steps 2-3 40×, 5) 95° C. for 15 seconds, 6) 55° C. for 1 minute, 7) ramp change to 0.15 degrees C./s, 8) 95° C. for 1 second. qPCR data was analyzed using analytic (Thermo Fisher Scientific, QuantStudio Design and Analysis) software."}, "[4]": {"test_system": "Sitophilus primary endosymbiont (SPE, Candidatus Sodalis pierantonius)", "assay": "Sitophilus primary endosymbiont (SPE) level by qPCR in weevils", "type": "in vivo, Sitophilus zeamais", "details": "for SPE amount, water-treated weevils versus treated (F0): 18 days of treatment", "description": "Sitophilus maize weevils (Sitophilus zeamais) were reared on organic corn at 27.5° C. and 70% relative humidity. Prior to being used for weevil rearing, corn was frozen for 7 days and then tempered to 10% humidity with sterile water. […] Ciprofloxacin (Sigma) stock solutions were made at 25 mg/ml in 0.1 N HCl, sterilized by passing through a 0.22 μm syringe filter, and stored at −20° C. For treatments, the appropriate amount of stock solution was diluted in sterile water.\nas §1"}}, "note": "“Also recorded” adds a separate entry of the source."}
{"smiles": "O=C(O)c1cn(C2CC2)c2cc(N3CCNCC3)c(F)cc2c1=O", "note": "[ciprofloxacin]", "values": [{"measurement": "development of F1 weevils", "setting": "Sitophilus zeamais [1]", "result": "delay in development"}, {"measurement": "emerged F1 offspring", "setting": "Sitophilus zeamais [2]", "result": "much less offspring"}, {"measurement": "E. coli growth on plates with entire soaked corn kernels", "setting": "Escherichia coli DH5a", "result": "inhibition of bacterial growth; also recorded: no bacteria grew"}, {"measurement": "weevil survival", "setting": "Sitophilus zeamais [3]", "result": "all weevils remained alive"}, {"measurement": "SPE amount, water-treated weevils versus treated (F0)", "setting": "[4]; 250 ug/ml", "result": "approximately 4 fold higher"}, {"measurement": "SPE amount, water-treated weevils versus treated (F0)", "setting": "[4]; 2.5 mg/ml", "result": "~8", "unit": "fold higher"}, {"measurement": "SPE level, water-treated F1 weevils versus treated", "setting": "[4]; 2.5 mg/ml, F1 weevils dissected from corn kernels", "result": "approximately 4 fold higher"}]}
